We go through 8 compounds from PubChem BioAssay (NCI).

Values joined by “and” are separate entries in the source; they are usually repeats but may differ in a detail not shown here. Equal entries are not always repeated.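 Method: 48-hour compound exposure of cells in 96-well plates, five concentrations, linear interpolation of endpoints. GI50 is the concentration that inhibits growth by half. Definition used: TGI = concentration required for complete inhibition of growth.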

Test systems include TK-10 renal; COLO 205 colon; M14 melanoma; SNB-75 CNS; U251 CNS; HOP-92 NSCLC; UACC-62 melanoma; NCI-H460 lung; SK-OV-3 ovarian; UACC-257 melanoma.
Assay in all cases: NCI anticancer screen, dose series, 48 h

For the compound `O=c1nc(Nc2cccc(Cl)c2)oc2cc(Cl)oc(=O)c12`, the GI50 is 5.11 µM in the experiment on TK-10 renal; 10.8 µM in the experiment with COLO 205 colon; 8.37 µM with M14 melanoma; 6.96 µM in the experiment with SNB-75 CNS; 5.08 µM in the experiment with U251 CNS; 5.01 µM with HOP-92 NSCLC. Moreover, the GI50 in the experiment on UACC-62 melanoma was 5.79 µM; in the experiment with NCI-H460 lung it was 16.7 µM; with SK-OV-3 ovarian, 17.2 µM; in the experiment on UACC-257 melanoma, 10.3 µM. Besides, the TGI is 24 µM with TK-10 renal; 23.7 µM in the experiment with COLO 205 colon; 26.9 µM with M14 melanoma; 21.4 µM in the experiment with SNB-75 CNS; 20.6 µM with U251 CNS; 19.5 µM in the experiment with HOP-92 NSCLC. Further, the TGI in the experiment with UACC-62 melanoma amounted to 21.3 µM; in the experiment on NCI-H460 lung it was 39.9 µM; with SK-OV-3 ovarian, 66.1 µM; in the experiment on UACC-257 melanoma it was 23.9 µM.
Turning to `CN(C)N1C(=O)c2ccccc2NC1c1ccccc1` (stereo not given), the TGI with TK-10 renal, with COLO 205 colon, in the experiment with M14 melanoma, with SNB-75 CNS, in the experiment with U251 CNS and in the experiment with HOP-92 NSCLC was more than 100 µM each time. Besides, the TGI in the experiment on UACC-62 melanoma, in the experiment on NCI-H460 lung, in the experiment with SK-OV-3 ovarian and with UACC-257 melanoma was more than 100 µM in each case.
Regarding `CN1NC2(CCCCC2)ON=C1c1ccccc1`, the TGI in the experiment on TK-10 renal, in the experiment with COLO 205 colon, in the experiment on M14 melanoma, in the experiment on SNB-75 CNS, with U251 CNS and in the experiment on HOP-92 NSCLC was more than 100 µM each time. In addition, the TGI in the experiment on UACC-62 melanoma, with NCI-H460 lung, in the experiment with SK-OV-3 ovarian and in the experiment on UACC-257 melanoma was more than 100 µM throughout.
Consider `CCOC(=O)C(Cc1c[nH]c2ccc(N(CCCl)CCCl)cc12)(NC(C)=O)C(=O)OCC`, for which the GI50 in the experiment on TK-10 renal is 22.2 µM and 17.6 µM; with COLO 205 colon it was 12.2 µM and 15.3 µM; with M14 melanoma it was 12.3 µM; in the experiment with SNB-75 CNS it was 11.5 µM and 6.53 µM; in the experiment with U251 CNS, 10.6 µM and 7.88 µM; in the experiment with HOP-92 NSCLC it was 14.1 µM. Also, the GI50 in the experiment with UACC-62 melanoma was 12.1 µM; with NCI-H460 lung, 1.82 µM and 0.765 µM; with SK-OV-3 ovarian it was 22.6 µM and 17.5 µM; in the experiment on UACC-257 melanoma, 17.6 µM and 23.9 µM. In addition, the TGI was 60.5 µM and 62.7 µM in the experiment with TK-10 renal; 30.4 µM and 44.2 µM in the experiment on COLO 205 colon; 116 µM with M14 melanoma; 67.9 µM and 57 µM in the experiment with SNB-75 CNS; 35.4 µM and 35.3 µM with U251 CNS; 250 µM in the experiment with HOP-92 NSCLC. In addition, the TGI was 26 µM with UACC-62 melanoma; 17.7 µM and 132 µM in the experiment on NCI-H460 lung; 99.4 µM and 131 µM in the experiment with SK-OV-3 ovarian; 52.6 µM and 94 µM in the experiment with UACC-257 melanoma.
Regarding `NC1CCN(c2nc(Nc3cccc(C(F)(F)F)c3)c3c(=O)[nH]ccc3n2)CC1`, the GI50 in the experiment with TK-10 renal was 1.3 µM; with COLO 205 colon, 1.4 µM; in the experiment with M14 melanoma, 1.01 µM; in the experiment on SNB-75 CNS it was 1.77 µM; with U251 CNS, 1.73 µM; with HOP-92 NSCLC, 1.44 µM. Moreover, the GI50 in the experiment on UACC-62 melanoma is 1.83 µM; with NCI-H460 lung it was 1.26 µM; in the experiment with SK-OV-3 ovarian, 1.08 µM; in the experiment with UACC-257 melanoma, 2.06 µM. Also, the TGI in the experiment with TK-10 renal turned out to be 2.72 µM; in the experiment on COLO 205 colon it was 2.82 µM; with M14 melanoma it was 2.23 µM; with SNB-75 CNS, 3.19 µM; with U251 CNS, 3.55 µM; in the experiment on HOP-92 NSCLC, 3.04 µM. Moreover, the TGI in the experiment with UACC-62 melanoma came to 3.51 µM; in the experiment on NCI-H460 lung it was 2.8 µM; with SK-OV-3 ovarian it was 2.39 µM; in the experiment with UACC-257 melanoma, 3.98 µM.
On to `C1CSCCCSCCSCCCSC1`, for which the TGI with TK-10 renal, with COLO 205 colon, with M14 melanoma, in the experiment on SNB-75 CNS, in the experiment with U251 CNS and in the experiment on HOP-92 NSCLC was more than 100 µM throughout. In addition, the TGI in the experiment on UACC-62 melanoma, in the experiment on NCI-H460 lung, in the experiment with SK-OV-3 ovarian and with UACC-257 melanoma was more than 100 µM each time.
Turning to `C#CC1(O)C(COP(=O)(O)OC2CC(n3cc(F)c(=O)[nH]c3=O)OC2CO)OC(n2ccc(N)nc2=O)C1O` (stereo not given), the GI50 with TK-10 renal was 0.0273 µM; in the experiment with COLO 205 colon, less than 0.01 µM; in the experiment on M14 melanoma it was less than 0.0211 µM; in the experiment with SNB-75 CNS, less than 0.0169 µM; with U251 CNS, less than 0.0138 µM; in the experiment with HOP-92 NSCLC it was less than 0.0242 µM. Besides, the GI50 is 0.019 µM in the experiment with UACC-62 melanoma, less than 0.01 µM in the experiment on NCI-H460 lung, 0.0735 µM with SK-OV-3 ovarian and 0.0663 µM in the experiment with UACC-257 melanoma. Besides, the TGI is more than 42.8 µM in the experiment on TK-10 renal; 1.61 µM in the experiment on COLO 205 colon; 0.774 µM in the experiment on M14 melanoma; 1.18 µM in the experiment with SNB-75 CNS; more than 100 µM in the experiment on U251 CNS; 3.75 µM with HOP-92 NSCLC. In addition, the TGI is 1.82 µM in the experiment on UACC-62 melanoma, more than 32.1 µM in the experiment on NCI-H460 lung, more than 100 µM in the experiment on SK-OV-3 ovarian and 2.18 µM with UACC-257 melanoma.
As for `CC/C=C\C[C@H](O)C/C=C1/C(=O)C=C[C@@H]1C/C=C\CCCC(=O)N(C)C`, the GI50 in the experiment on TK-10 renal is 2.61 µM; with COLO 205 colon it was 1.45 µM; in the experiment on M14 melanoma it was 2.79 µM; in the experiment on SNB-75 CNS, 10.9 µM; in the experiment with U251 CNS, 1.32 µM; with HOP-92 NSCLC it was 2.56 µM. Further, the GI50 with UACC-62 melanoma is 2.2 µM; in the experiment on NCI-H460 lung, 2.37 µM; in the experiment with SK-OV-3 ovarian, 4.36 µM; in the experiment on UACC-257 melanoma, 2.37 µM. Moreover, the TGI was determined as 7.48 µM with TK-10 renal; 3.3 µM in the experiment with COLO 205 colon; 11 µM in the experiment with M14 melanoma; 33.4 µM in the experiment with SNB-75 CNS; 3.91 µM with U251 CNS; 7.12 µM with HOP-92 NSCLC. Besides, the TGI with UACC-62 melanoma is 5.12 µM; in the experiment on NCI-H460 lung, 7.4 µM; with SK-OV-3 ovarian, 15.6 µM; in the experiment with UACC-257 melanoma it was 7.31 µM.
